Entries after “also recorded” stand apart in the source; their conditions may differ.
What was measured:
[1] = system: Aβ40 and Aβ42 production, CHO cells stably transfected with human APP695; assay: Secreted Aβ40/Aβ42 ELISA in CHO cells expressing human APP (CHO-APP cells); format: cell-based, Chinese hamster; set-up: key to Aβ42-lowering activity: Aβ42-lowering activity (“Yes”); no profound effects (“No”); non-determined (“ND”); Ginsenosides that affected cell viability are indicated as “Cytotoxic.”
Protocol: The CHO cells were treated with the indicated compounds (at 50 μg/ml) for 8 hrs. Aβ42 levels in the medium were measured by ELISA and normalized to intracellular full-length APP.
The potential effects of ginsenosides and their analogues in treating AD were examined. First, a number of ginsenosides were screened based on their effects on Aβ generation. The effects of various ginsenosides on Aβ (e.g., Aβ40 and Aβ42) production was initially accessed by incubating the Chinese hamster ovary (CHO) cells expressing human APP(CHO-APP cells) with each ginsenoside purified from unprocessed ginseng (known as “white ginseng”). These representative ginsenosides included Rb1, Rb2, Rc, Rd, Re, Re, Rg1 and Rg2 and differ in their side chains and sugar moieties.
After 8 hours of incubation, the media were collected and the levels of secreted Aβ40 and Aβ42 were determined by ELISA.

[2] = system: Aβ42 production in mammalian cells; details: Tae-Wan Kim et al., cited from earlier work
[3] = system: Aβ40 and Aβ42 production, CHO-APP/PS1 cells; assay: Secreted Aβ ELISA in CHO-APP/PS1 cells (wild-type PS1); format: cell-based, Chinese hamster
Protocol: The effects of Rg5 on the Aβ42 generation were much smaller as compared to Rgk351 and Rk1.
FIG. 10 depicts the effects of native ginsenosides on Aβ42 production. CHO cells stably transfected with human APP695 together with either wild-type (A, CHO-APP/PS1 cells) or ΔE9 FAD mutant (B, CHO-APP/ΔE9PS1 cells) forms of PS1 were used. Cells were treated with the indicated compounds (at 50 μM) for 8 hrs. Levels of secreted Aβ40 and Aβ42 in the medium were determined by ELISA and normalized to intracellular full-length APP. In CHO-APP/PS1 cells, average Aβ amounts in control samples were 320 pM for Aβ40 and 79 pM for Aβ42. The relative levels of Aβ and Aβ42 were normalized to values obtained from non-treated and vehicle-treated cells and are shown as % to control+s.d.). One of three representative experiments are shown.
CHO-APP/PS1 (A) and CHO-APP/ΔE9PS1 (B) cells were treated with the indicated compounds at 50 μM for 8 hrs and the levels of secreted Aβ40 and Aβ42 were determined as described in FIG. 1. […] The PS1-ΔE9 FAD mutation diminished the Aβ42 response to Rk1 treatment (B).

[4] = molecular target: T1, γ-secretase cleavage of Notch1 (NICD) (Homo sapiens, UniProt P49768); assay: Cell-free generation of NICD from membrane fractions of 293 cells overexpressing Notch-AE; format: biochemical
T1 construct: Membrane fractions isolated from 293 cells overexpressing either APP (A), Notch-AE (B) or p75-AE (C); endogenous in cells; host or cells: 293 cells (membrane fractions); only the substrates APP, Notch-ΔE and p75-ΔE are overexpressed
Protocol: Membrane fractions isolated from 293 cells overexpressing either APP (A), Notch-AE (B) or p75-AE (C) and incubated in the presence of indicated compounds: Compound E (CpdE, general γ-secretase inhibitor), Rgk351, Rk1 and sulindac sulfide (SS).

C=C(CCC=C(C)C)[C@H]1CC[C@]2(C)[C@@H]1[C@H](O)C[C@@H]1[C@@]3(C)CC[C@H](O[C@@H]4O[C@H](CO)[C@@H](O)[C@H](O)[C@H]4O[C@@H]4O[C@H](CO)[C@@H](O)[C@H](O)[C@H]4O)C(C)(C)[C@@H]3CC[C@]12C [Rk1]
generation of Aβ42 (Aβ42 levels in the medium, ELISA, normalized to intracellular full-length APP) ([1]; 50 μg/ml, 8 hrs, FIG. 4): reduce the generation of Aβ42 | Aβ42-lowering effect compared with other agents ([1]; CHO-APP cells): most effective | IC50 ([1]; CHO-APP cells, FIG. 12A, read-out: IC50 of Aβ42 lowering activity): ~20 µM | preference for Aβ42 vs. Aβ40 in cell-based assay ([1]; FIG. 6 / FIG. 12B): preferentially reduced Aβ42 (vs. Aβ40); also recorded: preferentially lowers Aβ42 (vs. Aβ40); also recorded: rather selective to Aβ42; also recorded: primarily affect Aβ42 production | Aβ42 in the medium, dose-response ([1]; dose-dependent, FIG. 5 / FIG. 12A): reduced Aβ42; also recorded: lower Aβ42 in a dose-dependent manner | production of Aβ42 in cells ([1]; general statement): lower the production of Aβ42 | concentration at which secretion of Aβ40 was affected ([1]; only at very high concentration): ~100 µM | Aβ40 production ([1]; overnight treatment, FIG. 12B): slightly affected | Aβ42 production ([1]; overnight treatment, FIG. 12B): reduce Aβ42 production | Aβ42-lowering activity ([1]; summary of Tables 1-3): Yes | production of Aβ42 in mammalian cells ([2]; patent application pending): lower the production of Aβ42 | relative effectiveness in reducing Aβ42 levels [2]: most effective | potency of Aβ42-reducing activity (rank) ([3]; 50 μM, 8 hrs, FIG. 11): Rk1>/=(20S)Rg3>Rg5>(20R)Rg3; also recorded: highest | Aβ42 levels ([3]; CHO cells co-expressing human APP and wild-type presenilin 1, FIG. 8): reduced the Aβ42 levels | secretion of Aβ42 ([3]; heat-processing derived ginsenosides, 50 μM, 8 hrs, FIG. 11): selectively lowered the secretion of Aβ42 | cell-free generation of NICD [4]: does not significantly affect; also recorded: not affected
